We go through eight compounds from ChEMBL document CHEMBL1201862, “PubChem BioAssay data set” (2004).

The source made the active and inactive calls. Some results are limits rather than exact numbers.

Test [1] can be described thus: HEp-2 cell cytotoxicity, dose response, cytotoxicity control for RSV inhibitor project, HTS (AID 2410). The class given is functional. The conditions noted are these: human respiratory syncytial virus.
A further test deals with Interleukin-8 (Homo sapiens, UniProt P10145). The experiment in a line: Dose Response confirmation of uHTS small molecule hits for cystic fibrosis induced NFkb Inhibitors in a PAF-induced IL8 counterscreen. The conditions noted are these: read-out: IC50_Mean. The class given is functional. Background: Counterscreens check selectivity or assay interference.
Chain of Interleukin-8 (P10145 whole entry): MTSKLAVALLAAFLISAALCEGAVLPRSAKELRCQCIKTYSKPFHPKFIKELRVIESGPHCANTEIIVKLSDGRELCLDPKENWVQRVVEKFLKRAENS
For test [2], the target named is Adenosylmethionine-8-amino-7-oxononanoate aminotransferase (Mycobacterium tuberculosis, UniProt P9WQ81). The experiment in a line: Mycobacterium tuberculosis BioA enzyme inhibitor Measured in Biochemical System Using Plate Reader - 2163-02_Inhibitor_Dose_CherryPick_Activity. Format: functional, Mycobacterium tuberculosis UT205.
Chain of Adenosylmethionine-8-amino-7-oxononanoate aminotransferase (P9WQ81 whole entry, the tested form may be a part): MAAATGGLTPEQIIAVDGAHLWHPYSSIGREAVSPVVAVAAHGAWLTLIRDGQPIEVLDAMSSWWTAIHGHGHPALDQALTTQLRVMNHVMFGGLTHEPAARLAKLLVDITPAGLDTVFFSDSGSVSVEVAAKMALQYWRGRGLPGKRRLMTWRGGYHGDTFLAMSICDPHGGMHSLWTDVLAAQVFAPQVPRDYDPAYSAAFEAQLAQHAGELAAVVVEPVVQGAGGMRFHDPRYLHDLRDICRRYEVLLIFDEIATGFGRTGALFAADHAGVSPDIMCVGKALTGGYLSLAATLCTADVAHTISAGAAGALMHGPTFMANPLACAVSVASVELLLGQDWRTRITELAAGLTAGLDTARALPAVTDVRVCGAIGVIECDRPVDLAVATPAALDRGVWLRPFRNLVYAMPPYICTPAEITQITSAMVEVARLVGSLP
Test [3] can be described thus: CAL PDZ domain peptide-binding inhibitors, dose response, biochemical, fluorescence polarization, untagged CAL PDZ, cherry-pick, set 2 (AID 602254). Format: functional. On the technique in general: Polarisation of emitted light reports the rotation of a fluorescent probe.
Test [4] deals with Voltage-gated inwardly rectifying potassium channel KCNH2 (Homo sapiens, UniProt Q12809). Nature of the test: hERG protection from proarrhythmic block, potency, dose response, cell-based, thallium flux (AID 2121). Format: ADME.
Chain of Voltage-gated inwardly rectifying potassium channel KCNH2 (Q12809 whole entry): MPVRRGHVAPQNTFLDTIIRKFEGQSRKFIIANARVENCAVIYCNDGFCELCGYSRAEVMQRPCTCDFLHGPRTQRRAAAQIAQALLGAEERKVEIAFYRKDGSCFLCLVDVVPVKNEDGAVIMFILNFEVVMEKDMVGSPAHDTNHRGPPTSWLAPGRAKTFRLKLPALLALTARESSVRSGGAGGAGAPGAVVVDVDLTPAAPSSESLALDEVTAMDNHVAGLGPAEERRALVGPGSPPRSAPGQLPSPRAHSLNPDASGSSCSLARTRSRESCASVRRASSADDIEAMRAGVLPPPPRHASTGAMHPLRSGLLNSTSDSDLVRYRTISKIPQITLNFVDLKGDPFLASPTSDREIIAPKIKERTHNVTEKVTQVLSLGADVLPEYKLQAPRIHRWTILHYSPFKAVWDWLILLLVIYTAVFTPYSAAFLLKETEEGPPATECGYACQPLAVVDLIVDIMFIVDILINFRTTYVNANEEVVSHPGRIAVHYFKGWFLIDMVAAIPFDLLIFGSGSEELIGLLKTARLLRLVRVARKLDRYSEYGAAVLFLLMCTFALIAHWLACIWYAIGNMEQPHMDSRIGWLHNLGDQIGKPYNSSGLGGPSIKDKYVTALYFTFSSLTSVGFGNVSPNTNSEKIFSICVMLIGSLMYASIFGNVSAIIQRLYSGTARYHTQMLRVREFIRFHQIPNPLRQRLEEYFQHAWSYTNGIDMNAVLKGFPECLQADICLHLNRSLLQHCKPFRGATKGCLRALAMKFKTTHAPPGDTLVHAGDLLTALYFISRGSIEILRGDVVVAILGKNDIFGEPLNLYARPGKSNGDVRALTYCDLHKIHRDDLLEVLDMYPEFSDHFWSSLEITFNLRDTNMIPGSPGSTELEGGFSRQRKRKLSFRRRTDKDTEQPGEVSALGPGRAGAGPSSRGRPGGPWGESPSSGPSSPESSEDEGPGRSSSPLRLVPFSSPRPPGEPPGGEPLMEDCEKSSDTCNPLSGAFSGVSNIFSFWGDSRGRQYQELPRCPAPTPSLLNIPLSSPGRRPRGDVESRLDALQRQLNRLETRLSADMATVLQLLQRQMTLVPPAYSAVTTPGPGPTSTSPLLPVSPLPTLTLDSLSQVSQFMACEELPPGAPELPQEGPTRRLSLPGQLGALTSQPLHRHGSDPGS
The target in test [5] is 26S proteasome non-ATPase regulatory subunit 14 (Homo sapiens, UniProt O00487). Nature of the test: inhibition of proteasome subunit RPN11 – biochemical, fluorescence polarization, uHTS hits, confirmation (AID 602368). Format: functional.
Chain of 26S proteasome non-ATPase regulatory subunit 14 (O00487 whole entry): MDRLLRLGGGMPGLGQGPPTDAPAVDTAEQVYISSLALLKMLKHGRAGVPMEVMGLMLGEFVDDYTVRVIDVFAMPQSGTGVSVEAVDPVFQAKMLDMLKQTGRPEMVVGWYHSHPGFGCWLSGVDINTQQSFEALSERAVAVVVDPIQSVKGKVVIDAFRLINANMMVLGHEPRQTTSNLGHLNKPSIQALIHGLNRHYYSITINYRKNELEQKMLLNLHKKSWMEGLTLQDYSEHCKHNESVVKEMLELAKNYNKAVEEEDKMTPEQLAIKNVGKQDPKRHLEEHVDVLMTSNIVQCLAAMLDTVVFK
Test [6] addresses 72 kDa type IV collagenase (Homo sapiens, UniProt P08253). The experiment in a line: Dose Response validation of uHTS RPN11 inhibitor hits using a MMP-2 Fluorescence assay. Format: functional.
For another test, the target named is Prothrombin (Bos taurus, UniProt P00735). The experiment in a line: thrombin inhibition, dose response, biochemical, fluorescence polarization, uHTS hits (AID 602369). The class given is functional.
The nature of test [7]: Luminescence-based cell-based high throughput dose response assay to identify activators of the DAF-12 from the parasite S. stercoralis (ssDAF-12). The class given is functional.
For test [8], the target named is T1, Oxysterols receptor LXR-beta (Homo sapiens, UniProt P55055).
T1 sequence (P55055 whole entry): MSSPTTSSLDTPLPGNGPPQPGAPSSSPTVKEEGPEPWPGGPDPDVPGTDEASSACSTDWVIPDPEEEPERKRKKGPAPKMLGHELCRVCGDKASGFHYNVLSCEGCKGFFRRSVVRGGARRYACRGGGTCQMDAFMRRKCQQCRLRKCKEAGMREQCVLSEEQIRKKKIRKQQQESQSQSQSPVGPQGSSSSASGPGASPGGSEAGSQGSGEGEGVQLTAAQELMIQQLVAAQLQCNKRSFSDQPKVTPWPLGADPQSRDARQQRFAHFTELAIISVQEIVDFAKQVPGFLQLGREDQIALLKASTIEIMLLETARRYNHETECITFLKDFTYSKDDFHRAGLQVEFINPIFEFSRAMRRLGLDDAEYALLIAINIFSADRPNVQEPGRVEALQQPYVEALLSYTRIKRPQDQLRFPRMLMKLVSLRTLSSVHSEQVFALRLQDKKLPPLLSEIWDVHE
The experiment in a line: LXR agonists, Gal4 luciferase reporter, dose response, counter-screen for ssDAF-12 agonist project, cell-based, luminescence, HEK293, S. stercoralis campaign (AID 720737). The conditions noted are these: read-out: IC50 (the source's name). Format: functional. A general note: In a reporter assay the amount or activity of a reporter protein is the signal.

Test [9] is described as follows: microbe, parasite or virus in culture. Format: functional. The conditions noted are these: Mycobacterium tuberculosis.
The subject of another test is Jurkat. Nature of the test: antigen receptor-induced NF-kB inhibitors, dose response, Jurkat, luciferase reporter, luminescence, B- and T-cell (AID 489004).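 Also: NF-kB luciferase reporter Jurkat cells stimulated with PMA plus ionomycin.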 Format: functional, cell-based. The conditions noted are these: Homo sapiens.
Test [10] can be described thus: cytotoxicity in HEK-293T NF-kB-Luc cells, dose response, cytotoxicity control for B/T-cell NF-kB inhibitor project, cell-based, uHTS hits (AID 489019).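 Also: IC50 reflects cytotoxicity as loss of cell viability.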 Format: functional.
The test system of another test is INS1. Nature of the test: beta cell apoptosis inhibitors, cytokine rescue, dose response, luminescence, retest (AID 449756).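 Also: cell death triggered by IL-1 beta plus TNF-alpha plus IFN-gamma mixture; protective hits raise ATP signal compared with cytokine alone wells.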 The settings on record: Rattus norvegicus. The class given is functional, cell-based.
A short description of test [11]: Shn3 3'UTR reporter inhibitors, dose response, cell-based, Clone20 osteoblasts, firefly luciferase, cherry-picked (AID 624132).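 Also: firefly luciferase luminescence from reporter carrying the Shn3 3'UTR in osteoblasts.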 The class given is functional.
Test [12] in a line: HepG2 cell cytotoxicity, dose response, cytotoxicity control for Shn3 inhibitor project, CellTiter-Glo, cherry-picked (AID 624134). The class given is functional, cell-based.
Test [13] is described as follows: control 3'UTR Renilla luciferase suppression, dose response, counter-screen for Shn3 inhibitor project, cell-based, Clone20-Shn3RL, cherry-picked (AID 624133). Format: functional.
In the next test the target is Protein Wnt-3a (Mus musculus, UniProt P27467). Nature of the test: Wnt3a-driven reporter signaling inhibition, dose response, selectivity assay for Gli-SUFU antagonist project, Wnt-LIGHT cells, luminescence (AID 651570).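 Also: Wnt-LIGHT reporter cells stimulated with conditioned medium from Wnt3a-producing cells.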 The class given is functional. The settings on record: read-out: IC50_Mean.
Chain of Protein Wnt-3a (P27467 whole entry, the tested form may be a part): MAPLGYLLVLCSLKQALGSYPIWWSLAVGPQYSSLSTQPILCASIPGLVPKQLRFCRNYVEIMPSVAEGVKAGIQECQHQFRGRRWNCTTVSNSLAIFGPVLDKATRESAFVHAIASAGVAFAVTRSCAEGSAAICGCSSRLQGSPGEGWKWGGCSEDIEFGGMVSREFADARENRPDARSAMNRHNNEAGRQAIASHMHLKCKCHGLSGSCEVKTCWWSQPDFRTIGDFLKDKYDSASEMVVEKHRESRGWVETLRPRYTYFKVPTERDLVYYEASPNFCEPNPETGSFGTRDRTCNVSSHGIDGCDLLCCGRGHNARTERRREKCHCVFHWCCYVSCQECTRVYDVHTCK
Test [14] is described as follows: inhibitors of clade B AD8 Env fusion, dose response, cell-based, cherry-pick (AID 652062).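 Also: luciferase signal from cell-cell fusion driven by HIV-1 clade B AD8 Env; potency is for inhibitors of fusion seen as a drop in luminescence.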 The class given is functional.
The target in test [15] is T2, COUP transcription factor 2 (Homo sapiens, UniProt P24468).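 Also: HEK293 cells transiently cotransfected with COUP-TFII expression vector and reporter; luciferase reporter luminescence driven by COUP-TFII from the pX2-168 reporter plasmid.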
T2 sequence (P24468 whole entry): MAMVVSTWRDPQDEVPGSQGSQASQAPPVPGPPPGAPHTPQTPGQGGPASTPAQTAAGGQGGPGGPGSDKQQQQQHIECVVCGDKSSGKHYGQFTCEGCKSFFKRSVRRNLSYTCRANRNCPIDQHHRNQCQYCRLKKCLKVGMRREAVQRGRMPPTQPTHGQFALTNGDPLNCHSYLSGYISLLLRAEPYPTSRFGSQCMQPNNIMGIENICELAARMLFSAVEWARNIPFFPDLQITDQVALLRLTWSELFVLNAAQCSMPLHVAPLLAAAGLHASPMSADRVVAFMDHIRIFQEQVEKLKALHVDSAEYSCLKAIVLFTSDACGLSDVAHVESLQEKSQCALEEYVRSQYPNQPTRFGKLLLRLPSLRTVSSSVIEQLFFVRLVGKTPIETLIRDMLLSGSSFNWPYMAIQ
The experiment in a line: Luminescence-based cell-based high throughput dose response assay to identify inhibitors of COUP-TFII (NR2F2). The class given is functional.

The nature of test [16]: HEK293T cytotoxicity, dose response, cytotoxicity control for miR-122 modulator project, cell-based, inhibitor set, cherry-pick, set 2 (AID 720697). The class given is functional.
Test [17] in a line: HEK293T cytotoxicity, dose response, cytotoxicity control for miR-122 modulator project, cell-based, activator set, cherry-pick (AID 720690).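 Also: HEK293T human cells scored for general mammalian cytotoxicity.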 The class given is functional.
A further test has as its target Melanocortin receptor 4 (Homo sapiens, UniProt P32245). The experiment in a line: MC4R antagonist potency on cAMP, dose response, cell-based, TR-FRET, biased antagonists (AID 602298).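 Also: antagonist potency against agonist-stimulated cAMP production.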 Format: functional.
A short description of test [18]: nonselective inhibitors of cellular cAMP signaling, dose response, counter-screen for MC4R biased antagonist project, cell-based, TR-FRET cAMP detection (AID 602305).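 Also: U2OS cells stimulated with forskolin near its EC80 as the cAMP inducer; potency is for inhibition of forskolin-stimulated cAMP signaling.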 The class given is functional.
The target in the next test is T3, Coagulation factor XII (Homo sapiens, UniProt P00748).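 Also: activated factor XIIa alpha cleaving a fluorogenic AMC peptide substrate; inhibitor potency from loss of enzyme activity.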
T3 sequence (P00748 whole entry): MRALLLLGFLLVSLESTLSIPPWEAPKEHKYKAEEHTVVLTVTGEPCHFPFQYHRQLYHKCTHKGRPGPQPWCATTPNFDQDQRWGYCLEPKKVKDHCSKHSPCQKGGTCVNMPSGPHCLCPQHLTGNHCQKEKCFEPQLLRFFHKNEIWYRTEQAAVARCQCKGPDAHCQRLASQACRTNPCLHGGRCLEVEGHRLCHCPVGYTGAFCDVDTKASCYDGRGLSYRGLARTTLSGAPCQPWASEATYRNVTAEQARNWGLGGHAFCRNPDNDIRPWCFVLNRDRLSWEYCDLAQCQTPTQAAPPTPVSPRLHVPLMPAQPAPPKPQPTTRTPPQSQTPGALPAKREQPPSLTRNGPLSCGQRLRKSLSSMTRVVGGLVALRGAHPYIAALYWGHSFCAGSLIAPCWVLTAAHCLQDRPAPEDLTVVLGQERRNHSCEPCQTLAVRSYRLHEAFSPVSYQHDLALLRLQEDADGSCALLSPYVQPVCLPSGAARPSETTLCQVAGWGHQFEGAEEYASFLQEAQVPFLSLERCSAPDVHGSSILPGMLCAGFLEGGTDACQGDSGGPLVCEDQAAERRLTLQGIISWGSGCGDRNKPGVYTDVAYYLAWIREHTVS
Format: functional.

Test [19] has as its target T4, Insulin-degrading enzyme (Homo sapiens, UniProt P14735).
T4 sequence (P14735 whole entry): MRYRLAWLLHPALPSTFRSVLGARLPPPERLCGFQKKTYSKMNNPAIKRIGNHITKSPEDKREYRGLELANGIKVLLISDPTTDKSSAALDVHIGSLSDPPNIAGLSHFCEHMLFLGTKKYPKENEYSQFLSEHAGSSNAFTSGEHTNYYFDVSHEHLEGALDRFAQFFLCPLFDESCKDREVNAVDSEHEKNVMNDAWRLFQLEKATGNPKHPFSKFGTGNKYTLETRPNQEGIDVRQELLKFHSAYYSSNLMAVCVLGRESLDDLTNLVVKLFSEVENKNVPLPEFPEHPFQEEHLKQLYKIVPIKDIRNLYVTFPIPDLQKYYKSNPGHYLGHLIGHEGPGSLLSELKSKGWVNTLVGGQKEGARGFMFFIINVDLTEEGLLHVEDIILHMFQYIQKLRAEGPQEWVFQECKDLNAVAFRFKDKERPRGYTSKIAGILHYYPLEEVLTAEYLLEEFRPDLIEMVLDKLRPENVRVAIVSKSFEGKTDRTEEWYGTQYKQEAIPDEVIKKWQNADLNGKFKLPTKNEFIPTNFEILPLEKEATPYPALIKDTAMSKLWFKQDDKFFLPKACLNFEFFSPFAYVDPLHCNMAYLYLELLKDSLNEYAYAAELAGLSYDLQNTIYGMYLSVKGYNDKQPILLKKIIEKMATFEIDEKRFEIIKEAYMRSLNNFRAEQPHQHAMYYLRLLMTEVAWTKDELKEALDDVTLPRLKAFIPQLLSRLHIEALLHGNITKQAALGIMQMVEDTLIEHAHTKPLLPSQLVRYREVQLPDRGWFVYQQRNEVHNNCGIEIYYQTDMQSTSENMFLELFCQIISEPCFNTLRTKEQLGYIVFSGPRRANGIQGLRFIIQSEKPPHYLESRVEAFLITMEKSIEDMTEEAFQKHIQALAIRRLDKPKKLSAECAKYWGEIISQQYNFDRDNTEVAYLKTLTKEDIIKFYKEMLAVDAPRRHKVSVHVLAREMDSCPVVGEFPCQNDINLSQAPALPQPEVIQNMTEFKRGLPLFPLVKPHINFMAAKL
The experiment in a line: activators of recombinant IDE enzyme, dose response, counter-screen for IDE activator project, biochemical, fluorescence polarization (AID 588681).

Test [20] concerns the target T4, Insulin-degrading enzyme. Nature of the test: activators of endogenous IDE in HEK cells, dose response, cell-based, fluorescence polarization (AID 588439). Format: functional.
Test [21] has as its system HEK293. The experiment in a line: HEK cell cytotoxicity by LDH release, dose response, cytotoxicity control for IDE activator project, fluorescence, HEK cells (AID 588440).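 Also: cytotoxicity by LDH release measuring loss of membrane integrity.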 The class given is functional, cell-based. The settings on record: Homo sapiens.
Test [22] has as its system HEK293. The experiment in a line: optical interference in Abeta FP readout, dose response, artefact control for IDE activator project, biochemical, fluorescence polarization (AID 588442). The class given is functional, cell-based. The conditions noted are these: Homo sapiens.

Chain of Melanocortin receptor 4 (P32245 whole entry): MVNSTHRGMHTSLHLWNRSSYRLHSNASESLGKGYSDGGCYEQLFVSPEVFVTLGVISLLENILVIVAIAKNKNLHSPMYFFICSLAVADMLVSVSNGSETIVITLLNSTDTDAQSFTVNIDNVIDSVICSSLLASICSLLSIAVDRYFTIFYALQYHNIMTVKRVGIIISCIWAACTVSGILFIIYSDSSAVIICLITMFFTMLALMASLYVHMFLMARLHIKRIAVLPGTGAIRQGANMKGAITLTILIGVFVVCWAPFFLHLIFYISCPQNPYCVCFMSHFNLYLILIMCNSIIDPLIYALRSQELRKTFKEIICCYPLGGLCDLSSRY
Chain of 72 kDa type IV collagenase (P08253 whole entry): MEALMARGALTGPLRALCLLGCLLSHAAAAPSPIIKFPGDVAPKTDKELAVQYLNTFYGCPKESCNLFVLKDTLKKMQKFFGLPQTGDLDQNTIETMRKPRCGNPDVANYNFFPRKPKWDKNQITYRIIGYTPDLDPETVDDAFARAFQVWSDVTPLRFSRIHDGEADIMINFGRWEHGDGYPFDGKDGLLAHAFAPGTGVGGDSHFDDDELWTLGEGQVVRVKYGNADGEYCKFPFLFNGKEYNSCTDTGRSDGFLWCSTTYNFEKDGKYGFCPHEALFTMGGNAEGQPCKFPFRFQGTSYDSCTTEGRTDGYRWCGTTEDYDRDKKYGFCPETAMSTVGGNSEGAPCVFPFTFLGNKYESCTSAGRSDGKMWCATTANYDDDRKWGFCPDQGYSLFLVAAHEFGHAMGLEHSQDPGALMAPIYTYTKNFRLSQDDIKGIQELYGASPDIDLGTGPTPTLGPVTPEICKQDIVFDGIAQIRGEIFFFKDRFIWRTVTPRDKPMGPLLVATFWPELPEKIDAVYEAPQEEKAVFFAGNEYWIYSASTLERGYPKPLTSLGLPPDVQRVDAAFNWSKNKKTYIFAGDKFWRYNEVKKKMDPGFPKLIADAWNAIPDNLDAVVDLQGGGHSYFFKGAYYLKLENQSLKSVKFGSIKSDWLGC

With `CC(C)C[C@H](CO)Nc1nc(Nc2cccc(Cl)c2)c2ncn(C(C)C)c2n1`, the CC50 in test [1] is 44.4 µM (active). In addition, the IC50 on Interleukin-8 is 5.97 µM (active).

What is called AC50 is the concentration giving half of the maximal activity seen. Take `Cc1cccc(C2c3[nH]c4ccccc4c3CCN2C(=O)CN2CCOC2=O)n1` (configuration not stated): in test [2], the AC50 is 7.05 µM (active).

Turning to `CC(C)(C)c1ccc(/C=N/N2CCN(c3ccccn3)CC2)cc1`, the AC50 in [3] is 91.5 µM (active).

As for `O=C(CSc1nc2cc(Cl)ccc2s1)c1cc2ccccc2o1`, the EC50 in test [4] is 0.35 µM (active); in test [8] it was > 67.5 µM (inactive). The IC50 is 24.5 µM (active) in test [5], 18.8 µM (active) in test [6], 28.5 µM (active) at Prothrombin and > 67.5 µM (inactive) in [7].

For the compound `Cc1ccc(OCCN2CCN(c3ncnc4sc(C)c(C)c34)CC2)cc1`, in [9], the CC50 was > 40 µM (active). The IC50 with Jurkat was > 80 µM (inactive); in test [10], > 80 µM (inactive); on Protein Wnt-3a, 0.282 µM (active); in test [15], 4.98 µM (active). Besides, the AC50 in the test on INS1 was 2.36 µM (active); in test [11] it was 0.754 µM (active); in test [12], 1.5 µM (active); in test [13], 2.05 µM (active); in test [14], 1.78 µM (active); in test [16] it was 13.6 µM (active). The AC50 in test [17] was 33.6 µM (active).

On to `COc1cc2c(cc1NC(=O)CN1C(=O)NC3(CCc4ccccc43)C1=O)oc1ccccc12` (configuration not stated), for which the CC50 in test [9] is 23.6 µM (active). Besides, the IC50 (at Melanocortin receptor 4; in test [18]) was > 64.6 µM (inactive) in each case.

Take `CC(=N)C1=C(O)C2(C)C(=CC1=O)Oc1c(C(C)=O)c(O)c(C)c(O)c12` (configuration not stated): the IC50 (on Melanocortin receptor 4; in test [18]) was > 64.6 µM (inactive) each time.

Consider `COc1ccc(C(=O)N/N=C/c2cc3ccccc3nc2O)cc1`, for which the IC50 is > 50 µM (inactive) at Coagulation factor XII and > 89.1 µM (inactive) in the test on HEK293 [21]. The values for the EC50 at Insulin-degrading enzyme [19], on Insulin-degrading enzyme [20] and with HEK293 [22] were > 54.7 µM (inactive), > 54.7 µM (inactive) and > 55.9 µM (inactive), respectively.
